# US6461997B1, “Triazole sulfones having herbicidal activity” (Monsanto Technology LLC, priority 1999, dated 2002)
# Test system: SINAR (wild mustard)
# Test: Pre-emergence herbicidal activity, cool season
# Assay type: in vivo, Sinapis arvensis
# Settings: lowest tested rate with 80% or greater inhibition; rates 300, 100, 30, 10 g/ha; about 14 days
# How it was run: (§1)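 GR80 values derive from percent inhibition relative to untreated plants, read roughly 14 days after sowing and pre-emergence soil-surface treatment (compound in 50:50 acetone/water; rates typically 10, 30, 100, 300 g/ha). Warm-season weeds grew at 30/21° C day/night, cool-season ones at 18/13° C; an asterisk marks activity without reaching 80% at the highest rate.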
row,Structure (SMILES),"Pre-emergence activity GR80, SINAR"
1,COCCN(C)C(=O)n1cnc(S(=O)(=O)C(F)(F)C(F)(F)Br)n1 [Example 76],10 g/ha

# Test system: PANMI (wild proso millet)
# Test: Pre-emergence herbicidal activity, warm season
# Assay type: in vivo, Panicum miliaceum
# Settings: GR80 = lowest tested rate (300, 100, 30, 10 g/ha) with 80% or greater inhibition; approx. 14 days after treating; 30/21° C.
# How it was run: (§2)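 GR80 values, pre-emergence, soil applied at 300, 100, 30, 10 g/ha. Warm regime 30/21 °C: PANMI, DIGSA. Cool regime 18/13 °C: ALOMY, POLCO. Rating ~14 d, % inhibition vs untreated.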
row,Structure (SMILES),Pre-emergence activity (GR80) PANMI
1,COCCN(C)C(=O)n1cnc(S(=O)(=O)C(F)(F)C(F)(F)Br)n1 [Example 76],100 g/ha

# Test system: LAMPU (purple deadnettle)
# Test: Pre-emergence herbicidal activity, cool season
# Assay type: in vivo, Lamium purpureum
# Settings: lowest tested rate with 80% or greater inhibition; rates 300, 100, 30, 10 g/ha; about 14 days
# How it was run: as §1
row,Structure (SMILES),"Pre-emergence activity GR80, LAMPU"
1,COCCN(C)C(=O)n1cnc(S(=O)(=O)C(F)(F)C(F)(F)Br)n1 [Example 76],100 g/ha

# Test system: DIGSA (large crabgrass)
# Test: Pre-emergence herbicidal activity, warm season
# Assay type: in vivo, Digitaria sanguinalis
# Settings: GR80 = lowest tested rate (300, 100, 30, 10 g/ha) with 80% or greater inhibition; approx. 14 days after treating; 30/21° C.
# How it was run: as §2
row,Structure (SMILES),Pre-emergence activity (GR80) DIGSA
1,COCCN(C)C(=O)n1cnc(S(=O)(=O)C(F)(F)C(F)(F)Br)n1 [Example 76],300 g/ha

# Test system: AEGCY (jointed goatgrass)
# Test: Pre-emergence herbicidal activity, cool season
# Assay type: in vivo, Aegilops cylindrica
# Settings: GR80 = lowest tested rate (300, 100, 30, 10 g/ha) with 80% or greater inhibition; approx. 14 days after treating; 18/13° C.
# Procedure: (§3) Tables 5 to 8 summarize results of tests conducted as described below to determine the pre-emergence herbicidal activity, in the form of a GR80 value, of illustrative compounds of this invention. […] Compounds of the invention were typically applied at rates of 300, 100, 30, and 10 g/ha. Where herbicidal activity was evident but 80% inhibition was not achieved at the highest rate tested, an asterisk (*) is shown in the following tables.
# (§4) The pre-emergence tests were conducted by the following procedure. Topsoil was sieved to pass through a 1.27 cm screen. Fertilizer was added to the topsoil and the mixture was then sterilized by heating. The topsoil mixture was placed in a pot and compacted to a depth of 1.0 to 1.25 cm from the top of the pot. Seeds of each of several monocotyledonous and dicotyledonous annual plant species were placed on top of the soil. Additional soil was subsequently placed over the seeds to level-fill the pot. A known amount of each test compound dissolved or suspended in an appropriate organic solvent was diluted with a 50:50 mix of acetone and water and applied to the surface of the soil. After treatment the plants were placed in a greenhouse where they received 0.64 cm of overhead irrigation. All subsequent watering consisted of a light overhead mist and/or subirrigation as needed for germination and growth. Tables 5 and 6 below relate to warm season plant species which were placed after pre-emergence treatment in a greenhouse with a 30/21° C. day/night temperature regime. Tables 7 and 8 below relates to cool season plant species placed after pre-emergence treatment in a greenhouse or growth chamber with an 18/13° C. day/night temperature regime.
# (§5) Approximately 14 days after planting and treating, the plants were observed and herbicidal efficacy recorded as percent inhibition by comparison with untreated plants.
# (§6) The plant species usually regarded as weeds which were utilized in the tests are identified in the tables below according to the following legend, in which “d” indicates a dicotyledonous species and “m” a monocotyledonous species. All monocotyledonous species included in the tests herein are grasses.
row,Structure (SMILES),Pre-emergence activity (GR80) AEGCY
1,COCCN(C)C(=O)n1cnc(S(=O)(=O)C(F)(F)C(F)(F)Br)n1 [Example 76],300 g/ha

# Test system: SOLNI (black nightshade)
# Test: Pre-emergence herbicidal activity, warm season
# Assay type: in vivo, Solanum nigrum
# Settings: GR80 = lowest tested rate (300, 100, 30, 10 g/ha) with 80% or greater inhibition; approx. 14 days after treating; 30/21° C.
# How it was run: as §1
row,Structure (SMILES),Pre-emergence activity (GR80) SOLNI
1,COCCN(C)C(=O)n1cnc(S(=O)(=O)C(F)(F)C(F)(F)Br)n1 [Example 76],300 g/ha

# Test system: SETFA (giant foxtail)
# Test: Pre-emergence herbicidal activity, warm season
# Assay type: in vivo, Setaria faberi
# Settings: GR80 = lowest tested rate (300, 100, 30, 10 g/ha) with 80% or greater inhibition; approx. 14 days after treating; 30/21° C.
# How it was run: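 Seeds sown in sterilised fertilised topsoil received surface-applied compound in 50:50 acetone/water, typically at 300, 100, 30 and 10 g/ha, then greenhouse-grown at 30/21° C (warm-season species) or 18/13° C (cool-season species). Percent inhibition versus untreated plants was scored at about 14 days, giving GR80; an asterisk marks activity short of 80% at the top rate.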
row,Structure (SMILES),Pre-emergence activity (GR80) SETFA
1,COCCN(C)C(=O)n1cnc(S(=O)(=O)C(F)(F)C(F)(F)Br)n1 [Example 76],300 g/ha

# Test system: AVEFA (wild oat)
# Test: Pre-emergence herbicidal activity, cool season
# Assay type: in vivo, Avena fatua
# Settings: GR80 = lowest tested rate (300, 100, 30, 10 g/ha) with 80% or greater inhibition; approx. 14 days after treating; 18/13° C.
# Procedure: as §3, §4, §5, §6
row,Structure (SMILES),Pre-emergence activity (GR80) AVEFA
1,COCCN(C)C(=O)n1cnc(S(=O)(=O)C(F)(F)C(F)(F)Br)n1 [Example 76],300 g/ha

# Test system: POLCO (wild buckwheat)
# Test: Pre-emergence herbicidal activity, cool season
# Assay type: in vivo, Polygonum convolvulus
# Settings: lowest tested rate with 80% or greater inhibition; rates 300, 100, 30, 10 g/ha; about 14 days
# How it was run: as §2
row,Structure (SMILES),"Pre-emergence activity GR80, POLCO"
1,COCCN(C)C(=O)n1cnc(S(=O)(=O)C(F)(F)C(F)(F)Br)n1 [Example 76],300 g/ha

# Test system: VERPE (creeping speedwell)
# Test: Pre-emergence herbicidal activity, cool season
# Assay type: in vivo, Veronica persicaria
# Settings: lowest tested rate with 80% or greater inhibition; rates 300, 100, 30, 10 g/ha; about 14 days
# How it was run: as §1
row,Structure (SMILES),"Pre-emergence activity GR80, VERPE"
1,COCCN(C)C(=O)n1cnc(S(=O)(=O)C(F)(F)C(F)(F)Br)n1 [Example 76],30 g/ha

# Test system: SETVI (green foxtail)
# Test: Pre-emergence herbicidal activity, cool season
# Assay type: in vivo, Setaria viridis
# Settings: GR80 = lowest tested rate (300, 100, 30, 10 g/ha) with 80% or greater inhibition; approx. 14 days after treating; 18/13° C.
# How it was run: as §1
row,Structure (SMILES),Pre-emergence activity (GR80) SETVI
1,COCCN(C)C(=O)n1cnc(S(=O)(=O)C(F)(F)C(F)(F)Br)n1 [Example 76],100 g/ha

# Test system: ALOMY (blackgrass)
# Test: Pre-emergence herbicidal activity, cool season
# Assay type: in vivo, Alopecurus myosuroides
# Settings: GR80 = lowest tested rate (300, 100, 30, 10 g/ha) with 80% or greater inhibition; approx. 14 days after treating; 18/13° C.
# How it was run: as §2
row,Structure (SMILES),Pre-emergence activity (GR80) ALOMY
1,COCCN(C)C(=O)n1cnc(S(=O)(=O)C(F)(F)C(F)(F)Br)n1 [Example 76],300 g/ha

# Test system: POROL (common purslane)
# Test: Pre-emergence herbicidal activity, warm season
# Assay type: in vivo, Portulaca oleracea
# Settings: GR80 = lowest tested rate (300, 100, 30, 10 g/ha) with 80% or greater inhibition; approx. 14 days after treating; 30/21° C.
# How it was run: as §1
row,Structure (SMILES),Pre-emergence activity (GR80) POROL
1,COCCN(C)C(=O)n1cnc(S(=O)(=O)C(F)(F)C(F)(F)Br)n1 [Example 76],300 g/ha

# Test system: STEME (common chickweed)
# Test: Pre-emergence herbicidal activity, cool season
# Assay type: in vivo, Stellaria media
# Settings: lowest tested rate with 80% or greater inhibition; rates 300, 100, 30, 10 g/ha; about 14 days
# How it was run: as §1
row,Structure (SMILES),"Pre-emergence activity GR80, STEME"
1,COCCN(C)C(=O)n1cnc(S(=O)(=O)C(F)(F)C(F)(F)Br)n1 [Example 76],300 g/ha

# Test system: SASKR (russian thistle)
# Test: Pre-emergence herbicidal activity, cool season
# Assay type: in vivo, Salsola kali
# Settings: lowest tested rate with 80% or greater inhibition; rates 300, 100, 30, 10 g/ha; about 14 days
# How it was run: as §1
row,Structure (SMILES),"Pre-emergence activity GR80, SASKR"
1,COCCN(C)C(=O)n1cnc(S(=O)(=O)C(F)(F)C(F)(F)Br)n1 [Example 76],30 g/ha

# Test system: GALAP (catchweed bedstraw)
# Test: Pre-emergence herbicidal activity, cool season
# Assay type: in vivo, Galium aparine
# Settings: lowest tested rate with 80% or greater inhibition; rates 300, 100, 30, 10 g/ha; about 14 days
# How it was run: as §1
row,Structure (SMILES),"Pre-emergence activity GR80, GALAP"
1,COCCN(C)C(=O)n1cnc(S(=O)(=O)C(F)(F)C(F)(F)Br)n1 [Example 76],100 g/ha

# Test system: AGSST (creeping bentgrass)
# Test: Pre-emergence herbicidal activity, cool season
# Assay type: in vivo, Agrostis stolonifera
# Settings: GR80 = lowest tested rate (300, 100, 30, 10 g/ha) with 80% or greater inhibition; approx. 14 days after treating; 18/13° C.
# How it was run: as §1
row,Structure (SMILES),Pre-emergence activity (GR80) AGSST
1,COCCN(C)C(=O)n1cnc(S(=O)(=O)C(F)(F)C(F)(F)Br)n1 [Example 76],100 g/ha

# Test system: AGRRE (quackgrass (seedling))
# Test: Pre-emergence herbicidal activity, cool season
# Assay type: in vivo, Elymus repens
# Settings: GR80 = lowest tested rate (300, 100, 30, 10 g/ha) with 80% or greater inhibition; approx. 14 days after treating; 18/13° C.
# Procedure: as §3, §4, §5, §6
row,Structure (SMILES),Pre-emergence activity (GR80) AGRRE
1,COCCN(C)C(=O)n1cnc(S(=O)(=O)C(F)(F)C(F)(F)Br)n1 [Example 76],100 g/ha
